Measurements published in patent publication US10683278B2 (JINAN UNIVERSITY, priority 2015, dated 2020).

molecular target: T1, AXL kinase (Homo sapiens, UniProt P30530); test: IC50 test on AXL kinase (Z′-LYTE FRET kinase activity detection); assay type: biochemical; conditions: Z′-LYTE FRET peptide assay, 1 h reaction
T1 construct: purchased Invitrogen PV4803
T1 sequence (P30530 26-894): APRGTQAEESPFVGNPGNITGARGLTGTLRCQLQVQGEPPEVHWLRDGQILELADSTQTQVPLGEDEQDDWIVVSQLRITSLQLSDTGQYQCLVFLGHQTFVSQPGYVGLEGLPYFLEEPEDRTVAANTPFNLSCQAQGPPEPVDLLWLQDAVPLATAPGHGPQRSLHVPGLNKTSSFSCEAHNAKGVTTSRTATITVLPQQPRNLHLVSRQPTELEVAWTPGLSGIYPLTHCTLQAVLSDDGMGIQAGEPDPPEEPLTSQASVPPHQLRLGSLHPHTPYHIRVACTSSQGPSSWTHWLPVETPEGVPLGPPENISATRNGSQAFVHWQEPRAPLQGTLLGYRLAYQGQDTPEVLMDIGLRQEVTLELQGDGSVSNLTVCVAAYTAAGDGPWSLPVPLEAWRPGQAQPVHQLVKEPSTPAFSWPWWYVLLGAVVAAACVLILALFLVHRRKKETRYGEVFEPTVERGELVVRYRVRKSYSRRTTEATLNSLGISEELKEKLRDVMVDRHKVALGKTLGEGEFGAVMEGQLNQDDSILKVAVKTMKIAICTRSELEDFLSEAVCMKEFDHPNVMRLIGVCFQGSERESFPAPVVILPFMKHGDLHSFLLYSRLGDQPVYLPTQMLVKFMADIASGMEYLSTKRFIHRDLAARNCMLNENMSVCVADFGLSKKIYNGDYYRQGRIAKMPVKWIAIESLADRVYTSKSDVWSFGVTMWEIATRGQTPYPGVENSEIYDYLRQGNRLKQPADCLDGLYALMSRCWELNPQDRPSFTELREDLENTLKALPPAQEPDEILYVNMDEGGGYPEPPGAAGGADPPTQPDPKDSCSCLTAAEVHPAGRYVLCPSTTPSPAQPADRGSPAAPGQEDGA
Description: Kinase activity detection: The activity of compounds on kinases was detected by a secondary reaction which used the Z′-LYTE™ technique (a detection using fluorescence, enzyme coupling, and based on differences in susceptibility of phosphorylated and non-phosphorylated polypeptides to proteolytic cleavage), followed the fluorescence resonance energy transfer (FRET) principle, and used Z′-LYTE™ FRET peptide substrates (Invitrogen, Z′-LYTE™ KINASE ASSAY KIT—TYR 2 PEPTIDE, PV3191). AXL kinase (invitrogen, PV4803) was diluted stepwise, FRET peptide was then added, followed by ATP, then by compounds at different concentrations, reacted for 1 h, site-specific proteases were then added to recognize and cleave non-phosphorylated FRET peptides, reacted for 1 h, and […] at 445 nm and 520 nm were detected using excitation wavelength of 400 nm.

| Compound | IC50 |
| --- | --- |
| C=C(C)c1ccc2c(c1)c(=O)c(C(=O)Nc1ccc(Oc3ncnc4[nH]cc(-c5ccccc5)c34)c(F)c1)c(C)n2C [TL50167, N-(3-fluoro-4-(5-phenyl-7H-pyrrolo[2,3-d]pyrimidin-4-yloxy)phenyl)-1,2-dimethyl-4-oxo-6-(prop-1-en-2-yl)-1,4-dihydroquinoline-3-carboxamide] | 324 nM |
| CCc1ccc2c(c1)c(=O)c(C(=O)Nc1ccc(Oc3ccnc(N)c3)c(F)c1)c(C)n2C [GDL5000050, N-(4-(2-aminopyridin-4-yloxy)-3-fluorophenyl)-6-ethyl-1,2-dimethyl-4-oxo-1,4-dihydroquinoline-3-carboxamide] | 888 nM |
| Cc1c(C(=O)Nc2ccc(Oc3ncnc4[nH]cc(-c5ccccc5)c34)c(F)c2)c(=O)c2cc(-c3cnn(C4CCNCC4)c3)ccc2n1C [TL50180] | > 10000 nM |
| 6-ethyl-N-(3-fluoro-4-(3-phenylfuro[2,3-b]pyridin-4-yloxy)phenyl)-1,2-dimethyl-4-oxo-1,4-dihydroquinoline-3-carboxamide [GDL5000039] | 192 nM |
| Cc1ccc2c(c1)c(=O)c(C(=O)Nc1ccc(Oc3ncnc4c3c(-c3ccccc3)cn4C)c(F)c1)c(C)n2C [TL50134, N-(3-fluoro-4-(7-methyl-5-phenyl-7H-pyrrolo[2,3-d]pyrimidin-4-yloxy)phenyl)-1,2,6-trimethyl-4-oxo-1,4-dihydroquinoline-3-carboxamide] | > 10000 nM |
| Cc1c(C(=O)Nc2ccc(Oc3ncnc4[nH]cc(-c5ccccc5)c34)c(F)c2)c(=O)c2cc(Br)ccc2n1C [TL50133, 6-bromo-N-(3-fluoro-4-((5-phenyl-7H-pyrrolo[2,3-d]pyrimidin-4-yl)oxy)phenyl)-1,2-dimethyl-4-oxo-1,4-dihydroquinoline-3-carboxamide] | 3120 nM |
| Cc1c(C(=O)Nc2ccc(Oc3ncnc4[nH]cc(-c5ccccc5)c34)c(F)c2)c(=O)c2c(Cl)cccc2n1C [TL50081, 5-chloro-N-(3-fluoro-4-((5-phenyl-7H-pyrrolo[2,3-d]pyrimidin-4-yl)oxy)phenyl)-1,2-dimethyl-4-oxo-1,4-dihydroquinoline-3-carboxamide] | > 10000 nM |
| COc1ccc2c(c1)c(=O)c(C(=O)Nc1ccc(Oc3ncnc4[nH]cc(-c5ccccc5)c34)c(F)c1)c(C)n2C [TL4800005, N-(3-fluoro-4-((5-phenyl-7H-pyrrolo[2,3-d]pyrimidin-4-yl)oxy)phenyl)-6-methoxy-1,2-dimethyl-4-oxo-1,4-dihydroquinoline-3-carboxamide] | 99 nM |
| Cc1c(C(=O)Nc2ccc(Oc3ncnc4[nH]cc(-c5ccccc5)c34)c(F)c2)c(=O)c2ccccc2n1C [TL50054, N-(3-fluoro-4-((5-phenyl-7H-pyrrolo[2,3-d]pyrimidin-4-yl)oxy)phenyl)-1,2-dimethyl-4-oxo-1,4-dihydroquinoline-3-carboxamide] | > 10000 nM |
| Cc1ccc2c(c1)c(=O)c(C(=O)Nc1ccc(Oc3ncnc4[nH]cc(-c5ccccc5)c34)c(F)c1)c(-c1ccccc1)n2C [TL4800144, N-(3-fluoro-4-(5-phenyl-7H-pyrrolo[2,3-d]pyrimidin-4-yloxy)phenyl)-1,6-dimethyl-4-oxo-2-phenyl-1,4-dihydroquinoline-3-carboxamide] | 78 nM |
| CCc1cc2c(=O)c(C(=O)Nc3ccc(Oc4ncnc5cc(OC)c(OC)cc45)c(F)c3)c(C)n(C)c2cc1N1CCN(C)CC1 [TL4830071, N-(4-(6,7-dimethoxyquinazolin-4-yloxy)-3-fluorophenyl)-6-ethyl-1,2-dimethyl-7-(4-methylpiperazin-1-yl)-4-oxo-1,4-dihydroquinoline-3-carboxamide] | 14.8 nM |
| Cc1c(C(=O)Nc2ccc(Oc3ncnc4[nH]cc(-c5ccccc5)c34)c(F)c2)c(=O)c2cc(C3=CCCC3)ccc2n1C [TL50160, 6-cyclopentenyl-N-(3-fluoro-4-((5-phenyl-7H-pyrrolo[2,3-d]pyrimidin-4-yl)oxy)phenyl)-1,2-dimethyl-4-oxo-1,4-dihydroquinoline-3-carboxamide] | 4530 nM |
| CCn1cc(C(=O)Nc2ccc(Oc3ncnc4cc(OC)c(OC)cc34)c(F)c2)c(=O)c2cc(F)c(N3CCNCC3)nc21 [GDL5000102, N-(4-((6,7-dimethoxyquinazolin-4-yl)oxy)-3-fluorophenyl)-1-ethyl-6-fluoro-4-oxo-7-(piperazin-1-yl)-1,4-dihydro-1,8-naphthyridine-3-carboxamide] | 64 nM |

Next, values leading:

| IC50 | Compound |
| --- | --- |
| > 10000 nM | CCc1ccc2c(c1)c(=O)c(C(=O)Nc1ccc(Oc3ccnc(NCc4ccccc4)c3)c(F)c1)c(C)n2C |
| 61 nM | CCCc1ccc2c(c1)c(=O)c(C(=O)Nc1ccc(Oc3ncnc4[nH]cc(-c5ccccc5)c34)c(F)c1)c(C)n2C [TL4800116, N-(3-fluoro-4-((5-phenyl-7H-pyrrolo[2,3-d]pyrimidin-4-yl)oxy)phenyl)-1,2-dimethyl-4-oxo-6-propyl-1,4-dihydroquinoline-3-carboxamide] |
| > 10000 nM | Cc1c(C(=O)Nc2ccc(Oc3ncnc4[nH]cc(-c5ccccc5)c34)c(F)c2)c(=O)c2cc3ccccc3cc2n1C [TL50198, N-(3-fluoro-4-((5-phenyl-7H-pyrrolo[2,3-d]pyrimidin-4-yl)oxy)phenyl)-1,2-dimethyl-4-oxo-1,4-dihydrobenzo[g]quinoline-3-carboxamide] |
| 146 nM | CCn1c(C)c(C(=O)Nc2ccc(Oc3ncnc4[nH]cc(-c5ccccc5)c34)c(F)c2)c(=O)c2cc(C)ccc21 [TL4800067, 1-ethyl-N-(3-fluoro-4-(5-phenyl-7H-pyrrolo[2,3-d]pyrimidin-4-yloxy)phenyl)-2,6-dimethyl-4-oxo-1,4-dihydroquinoline-3-carboxamide] |
| > 10000 nM | Cc1c(C(=O)Nc2ccc(Oc3ncnc4[nH]cc(-c5ccccc5)c34)c(F)c2)c(=O)c2cc(-c3ccccc3)ccc2n1C [TL50163, N-(3-fluoro-4-(5-phenyl-7H-pyrrolo[2,3-d]pyrimidin-4-yloxy)phenyl)-1,2-dimethyl-4-oxo-6-phenyl-1,4-dihydroquinoline-3-carboxamide] |
| > 10000 nM | Cc1c(C(=O)Nc2ccc(Oc3ncnc4[nH]cc(-c5ccccc5)c34)c(F)c2)c(=O)c2ccc(Cl)cc2n1C [TL50080, 7-chloro-N-(3-fluoro-4-((5-phenyl-7H-pyrrolo[2,3-d]pyrimidin-4-yl)oxy)phenyl)-1,2-dimethyl-4-oxo-1,4-dihydroquinoline-3-carboxamide] |
| 618 nM | Cc1ccc2c(c1)c(=O)c(C(=O)Nc1ccc(Oc3ncnc4[nH]cc(-c5ccccc5)c34)c(F)c1)c(C)n2-c1ccccc1 [GDL5000083, N-(3-fluoro-4-((5-phenyl-7H-pyrrolo[2,3-d]pyrimidine-4-yl)oxy)phenyl)-2,6-dimethyl-4-oxo-1-phenyl-1,4-hydroquinoline-3-carboxamide] |
| 152 nM | Cc1ccc2c(c1)c(=O)c(C(=O)Nc1ccc(Oc3ncnc4[nH]cc(-c5ccccc5)c34)c(F)c1)cn2C [TL4800167, N-(3-fluoro-4-(5-phenyl-7H-pyrrolo[2,3-d]pyrimidin-4-yloxy)phenyl)-1,6-dimethyl-4-oxo-1,4-dihydroquinoline-3-carboxamide] |
| 557 nM | Cc1ccc2[nH]c(C)c(C(=O)Nc3ccc(Oc4ncnc5[nH]cc(-c6ccccc6)c45)c(F)c3)c(=O)c2c1 [TL4800025, N-(3-fluoro-4-((5-phenyl-7H-pyrrolo[2,3-d]pyrimidin-4-yl)oxy)phenyl)-2,6-dimethyl-4-oxo-1,4-dihydroquinoline-3-carboxamide] |
| 4380 nM | CCc1ccc2c(c1)c(=O)c(C(=O)Nc1ccc(Oc3ccnc(C(N)=O)c3)c(F)c1)c(C)n2C [GDL5000045, N-(4-(2-carbamoylpyridin-4-yloxy)-3-fluorophenyl)-6-ethyl-1,2-dimethyl-4-oxo-1,4-dihydroquinoline-3-carboxamide] |
| 211 nM | Cc1c(C(=O)Nc2ccc(Oc3ccnc4[nH]cc(-c5ccccc5)c34)c(F)c2)c(=O)c2cc(Cl)ccc2n1C [TL50128, 6-chloro-N-(3-fluoro-4-((3-phenyl-1H-pyrrolo[2,3-b]pyridin-4-yl)oxy)phenyl)-1,2-dimethyl-4-oxo-1,4-dihydroquinoline-3-carboxamide] |
| 429 nM | CC1COc2c(N3CCN(C)CC3)c(F)cc3c(=O)c(C(=O)Nc4ccc(Oc5ncnc6[nH]cc(-c7ccccc7)c56)c(F)c4)cn1c23 (stereo not shown) [TL4800088, 9-fluoro-N-(3-fluoro-4-((5-phenyl-7H-pyrrolo[2,3-d]pyrimidin-4-yl)oxy)phenyl)-3-methyl-10-(4-methylpiperazin-1-yl)-7-oxo-3,7-dihydro-2H-[1,4]oxazino[2,3,4-ij]quinoline-6-carboxamide] |
